Laboratory results as given in ChEMBL document CHEMBL6074686 (Eur J Med Chem, 2025).
Activity calls are given as the source filed them. No cut-off for these calls is given here.

Legend:
SK-OV-3 [1] = experiment: Induction of cell cycle arrest in human SK-OV-3 cells assessed as downregulation of Cdc-2 expression at 100 nM incubated for 24 hrs by Western blotting analysis; assay type: functional, cell-based
MCF7 [2] = experiment: Inhibition of cell migration in human MCF7 cells assessed as ratio of migrated cells at 6.25 nM incubated for 24 hrs by crystal violet staining based inverted microscopic analysis (reference value: 100%); assay type: functional; design: scale not given: the % may be the effect or the level left
[3] = Toxicity in female BALB/c nude mouse xenografted with human SK-OV-3 cells assessed as drug tolerance by measuring loose stools at 30 mg/kg, administered via tail vein for 5 days and measured daily; assay type: organism-based, Feces; conditions: in vivo, iv, 120 h, time 5 day
[4] = Toxicity in female BALB/c nude mouse xenografted with human SK-OV-3 cells assessed as drug tolerance by measuring body weight loss at 15 mg/kg, administered via tail vein for 5 days and measured daily; assay type: organism-based; conditions: in vivo, iv, 120 h, time 5 day
MCF7 [5] = experiment: Induction of apoptosis in human MCF7 cells assessed as upregulation of cleaved-PARP expression at 25 to 50 nM incubated for 24 hrs by Western blotting analysis; assay type: functional, cell-based; conditions: dose 25-50 nM
[6] = Toxicity in female BALB/c nude mouse xenografted with human SK-OV-3 cells assessed as pathological changes in heart at 5 to 10 mg/kg, […] via tail vein once every 2 to 3 days by H and E staining based analysis; assay type: organism-based; conditions: in vivo, dose lower 5 mg/kg, time lower 2 day, dose upper 10 mg/kg, time upper 3 day
SK-OV-3 [7] = experiment: Induction of apoptosis in human SK-OV-3 cells assessed as downregulation of Bcl-2 expression incubated for 24 hrs by Western blotting analysis; assay type: functional, cell-based
A549 = experiment: Induction of cell cycle arrest in human A549 cells assessed as downregulation of Cdc-25c expression incubated for 24 hrs by Western blotting analysis; assay type: functional, cell-based; conditions: dose 25-100 nM
SK-OV-3 [8] = experiment: Induction of cell cycle arrest in human SK-OV-3 cells assessed as downregulation of Cdc-25c expression incubated for 24 hrs by Western blotting analysis; assay type: functional, cell-based; conditions: dose 25-100 nM
SK-OV-3 [9] = experiment: Inhibition of cell migration in human SK-OV-3 cells assessed as ratio of migrated cells at 20 nM incubated for 24 hrs by Transwell assay (reference value: 100 %); assay type: functional; design: scale not given: the % may be the effect or the level left
SK-OV-3 [10] = experiment: Inhibition of cell migration in human SK-OV-3 cells assessed as wound closure ratio at 50 nM incubated for 24 hrs by wound healing assay (reference value: 100%); assay type: functional; design: scale not given: the % may be the effect or the level left

CNc1nc(N2CCCc3cc(OC)ccc32)c2cc(F)ccc2n1
Activity (SK-OV-3 [1]): inactive | Activity (MCF7 [2]): 88.6% | Activity [3]: Toxic | Activity [4]: Toxic | Activity (MCF7 [5]): Active | Activity [6]: Non-toxic | Activity (SK-OV-3 [7]): Active | Activity (A549): Dose-dependent-effect | Activity (SK-OV-3 [8]): Dose-dependent-effect | Activity (SK-OV-3 [9]): 11.9% | Activity (SK-OV-3 [10]): 22.7%
